The source of these data is patent US11123335B2, “Method for preventing lung diseases in smokers and non-smokers using antihypertensive drug” (SEOUL NATIONAL UNIVERSITY R & DB FOUNDATION, priority 2015, dated 2021).

One assay concerns intracellular Ca^2+. The experiment in a line: Intracellular Ca2+ production (Fluo-4 AM). It counts as cell-based, human. Conditions: NNK treatment. On the procedure: Lung epithelial cells were placed on coverslips, treated with an antihypertensive drug or a Ca^2+ chelator, treated with Ca^2+ indicator Fluo-4 AM at 37° C. for 15 minutes, and then treated with NE for 5 minutes. The cells were washed with PBS three times. The slides were mounted with a mounting medium, and images were captured using a Nuance multispectral imaging system (PerkinElmer).
For real-time monitoring of a Ca^2+ change in cells by NNK, the cells were seeded into 96-well cell carrier microplates (PerkinElmer), treated with an antihypertensive drug, treated with Fluo-4 AM at 37° C. for 15 minutes, and then treated with NNK. Fluorescence changes were monitored using an Operetta high content screening system, and result analysis was performed using Harmony software (PerkinElmer).

In assay [1] the test system is IGF-1R. The experiment in a line: NNK-induced IGF-1R phosphorylation in IGF-1R or IR-overexpressing fibroblasts (immunoprecipitation). In kind it is cell-based. The conditions noted are these: NNK 10 μM, time-dependent. As to the method: Proteins isolated from cells were incubated with an antibody and protein A/G agarose to isolate a protein binding to the corresponding antibody. The presence of other proteins capable of interacting with a specific protein was determined by Western blot analysis.
(§1) Cells were washed twice with ice-cold PBS, and then lysed with a modified RIPA buffer [50 mM Tris-HCl (pH 7.4), 150 mM NaCl, 1 mM EDTA, 0.25% sodium deoxycholate, 1% Triton X-100, a protease inhibitor cocktail, 100 mM NaF, 1 mM Na3VO4]. Lysates were centrifuged at 13,000 rpm for 15 to 20 minutes to harvest supernatants, and then the collected proteins were quantified using the BCA method. Equivalent amounts of the proteins were subjected to electrophoresis using 8-15% SDS-PAGE, and then transferred to a PVDF membrane. The membrane was washed with TBST (0.01% Tween-20-containing Tris-buffered saline), and blocked in a blocking buffer (diluted in TBST to contain 5% skim milk) at room temperature for 1 hour. The membrane was incubated with primary antibodies diluted in 3% BSA-containing TBST at 4° C. for 12 hours, and washed with TBST for over 1 hour. The membrane was incubated with secondary antibodies diluted in TBST containing 3% skim milk at room temperature for 1 to 2 hours, and washed with TBST for over 1 hour. The membrane was reacted in an ECL solution, and band visualization was carried out by exposure to an X-ray film.

In assay [2] the test system is IGF2. The experiment in a line: IGF1 and IGF2 generation in lung epithelial cells (RT-PCR). In kind it is cell-based, human. The conditions noted are these: NNK 1 or 10 μM. As to the method:
RNA was isolated from lung epithelial cells by the following method. By adding TRIzol Reagent, the cells were homogenized, treated with chloroform and then centrifuged at 13,000 rpm for 20 minutes. After collection of supernatants, equivalent amounts of isopropanol were added, and then the resulting mixture was centrifuged at 13,000 rpm for 20 minutes to precipitate RNA. The precipitated RNA was washed with 75% ethanol, dried and then dissolved in nuclease-free water. The absorbance at 260 nm was measured, and then the RNA was quantified. RNA having a ratio of A260/A280 nm of 1.8 to 2.0 was used in the experiments. All of the experiments were carried out under RNase-free conditions.
cDNA was synthesized using the PrimeScript™ 1st strand cDNA Synthesis Kit by reacting 2 μg of total RNA with Oligo dT primer (50 μM), a dNTP mixture, and RNase-free dH2O at 65° C. for 5 minutes, reacting a Template RNA primer mixture with 5× PrimeScript Buffer, an RNase inhibitor, PrimeScript RTase, and RNase-free dH2O at 42° C. for 1 hour, and performing heating at 95° C. for 5 minutes to stop the reaction.
After a reaction solution was adjusted to a final volume of 20 μl by adding 2 μl cDNA, 4 μM primer sets, 10 μl EconoTaq® polymerase, and distilled water, polymerase chain reaction (PCR) was carried out using a PCR instrument. […]

Assay [3] has as its system IGF-1R. The experiment in a line: IGF-1R activation in lung tissue of NNK-treated mice. In kind it is in vivo, mouse. The conditions noted are these: A/J mice, NNK 3 μmol. As to the method:
as §1

The subject of assay [4] is IGF-1R. In words: NNK-induced IGF-1R activation in lung epithelial / lung cancer cells (Western blot). Conditions: for NNK-mediated IGF-1R activation: NNK-treated BEAS-2B cells. It counts as cell-based, human. On the procedure: as §1
For orientation: A western blot detects proteins with antibodies after separation by electrophoresis.

Assay [5] has as its system IGF2. In words: IGF2 secretion in GFP-IGF2-overexpressing BEAS-2B cells. In kind it is cell-based, human.
The next assay relates to angiotensinogen (AGT). The experiment in a line: AGT expression or secretion in lung epithelial cells. In kind it is cell-based, human. As to the method: as §1
The subject of assay [6] is IGF-1R. The experiment in a line: IGF-1R phosphorylation on change of intracellular Ca2+ (Western blot). It counts as cell-based, human. Conditions: HBE/p53i cells. On the procedure:
as §1

The subject of assay [7] is IGF2. In words: NE-mediated IGF2 secretion in lung epithelial cells. The conditions noted are these: NE-treated lung epithelial cells. It counts as cell-based, human. As to the method: ELISA for IGF1, IGF2 and NE were performed using commercially available ELISA kits (R&D Systems, DSL or Abnova) according to the manufacturer's instruction.
Assay [8] relates to IGF-1R. The experiment in a line: NE-mediated IGF-1R activation in lung epithelial cells. In kind it is cell-based, human. Conditions: NE-treated lung epithelial cells. On the procedure:
as §1

The subject of assay [9] is lung epithelial cells. In words: Transformation of lung epithelial cells by stress hormones. It counts as cell-based, human. The conditions noted are these: treatment with the stress hormone alone. As to the method:
(§2) Cells (2-3×10^3 cells) were seeded into 96-well plates, treated with a test drug diluted with a medium, and then incubated for 3 days. After incubation, the cells were treated with an MTT solution to have a final concentration of 200-500 μg/ml and incubated for 2 to 4 hours. After discarding the medium, produced formazan was dissolved in DMSO, and then the absorbance at 570 nm was measured. Alternatively, cells were seeded into 12- or 24-well plates, collected after a predetermined time after treatment with a test drug, and then counted using a hemocytometer. 100 to 300 cells were seeded into 6- or 12-well plates and then treated with NNK or NNK and a test drug for 2 to 3 weeks. After 2 to 3 weeks, Colony formation was observed and the colonies were counted after stained staining with crystal violet. Before the experiment, low-melting agar (final concentration of agar: 1%) was diluted with a medium, and then 1 ml of the resulting solution was added and solidified in each 24-well plate, resulting in bottom agar. 2,000 to 5,000 cells were mixed with the low melting agar (final concentration of agar: 0.35-0.4%), 500 μl of the resulting mixture was added onto each bottom agar. After solidification of the agar, the cells were treated with NNK or a test drug, which was diluted with a medium. After 2 to 4 weeks after treatment, colonies were stained with an MTT solution, observed, and then counted. Lung epithelial cells at 90 to 95% confluency were treated with a carcinogen diluted with a growth factor-free medium, or a carcinogen and a test drug. After 2 to 3 weeks, foci formation was observed.

The subject of assay [10] is lung epithelial cells. The experiment in a line: NE-induced viability and colony formation of lung epithelial cells. In kind it is cell-based, human. The conditions noted are these: NE-treated lung epithelial cells. On the procedure:
as §2, with “100 to 300 cells were seeded into 6- or 12-well plates and then treated with NNK or NNK and a test drug for 2 to 3 weeks.” left out, “counted.” for “counted. Lung epithelial cells at 90 to 95% confluency were treated with a carcinogen diluted with a growth factor-free medium, or a carcinogen and a test drug. After 2 to 3 weeks, foci formation was observed.”

Assay [11] has as its system lung epithelial cells. The experiment in a line: NNK-induced viability, colony formation and foci formation of lung epithelial cells. It counts as cell-based, human. As to the method:
as §2

For a further assay, the system named is A/J mice. In words: NNK lung carcinogenesis animal model. In kind it is in vivo, mouse. The conditions noted are these: NNK 3 μmol oral twice a week, test drug oral 6 times a week, 20 weeks. On the procedure:
NNK (3 μmol) was orally administered to A/J mice twice a week, and a test drug was orally administered thereto 6 times a week for a total of 20 weeks. Afterward, the mice were sacrificed, lungs were extracted from the mice, and the produced tumors were counted. Lung paraffin blocks were prepared, four or more tissue sections were prepared at regular intervals, and then stained by H&E staining as described below. Numbers and sizes of the tumors were measured to calculate volumes of the tumors. Paraffin blocks were sliced to have a thickness of 4 μm, placed onto silane-coated slides, and then dried. The dried slide glasses were deparaffinized overnight in a 65° C. dry oven. Afterward, the slide glasses were dipped in xylene for 5 minutes twice. After deparaffinization, the slide glasses were sequentially hydrated with 100%, 95%, 70%, and 50% ethanol, stained with a Harris hematoxylin solution for 1.5 minutes, dipped in a 1% HCl alcohol solution and ammonia, and then counterstained with an eosin solution for 30 seconds. Afterward, the resulting tissue sections were sequentially dehydrated using 95% and 100% ethanol, transparentized with xylene, and then mounted. Images were captured using a microscope.

Molecules are shown by their SMILES. Where two headings read alike, the source gives them in different places.

For the compound `CN(CCCC(=O)c1cccnc1)N=O` [NNK, 4-(methylnitrosamino)-1-(3-pyridyl)-1-butanone], the “intracellular Ca^2+” value in the assay on intracellular Ca^2+ is listed as “increased”. For the same compound, in the assay on IGF-1R [1], the “specificity of increase in IGF-1R phosphorylation (IGF-1R vs IR)” value is “specifically shown for IGF-1R, not for IR”. Besides, the IGF2 generation entry with IGF2 [2] was “increased”. In the assay with IGF-1R [3], the “activation of IGF-1R and its downstream signaling IRS in lung tissue” value is on record as “increased”. Besides, the “activation of IGF-1R and its downstream signaling mediators Akt, mTOR, ERK” value in the assay on IGF-1R [4] (NHBE, SAEC, HBE/p53i, HB56B, BEAS-2B, increasing NNK time or concentration) is recorded as “increased”. The “IGF-1R activation in lung cancer cells” value in the assay on IGF-1R [4] (various lung cancer cells with different genotypes, NNK 10 μM) is listed as “activated”. Also, the IGF2 secretion entry in the assay on IGF2 [5] (GFP-IGF2-overexpressing BEAS-2B, NNK treatment) is recorded as “increased”. In the assay with angiotensinogen (AGT) (NNK treatment), the AGT promoter activation result is on record as “activated”. In the assay with angiotensinogen (AGT) (increase in NNK treatment time and concentration), the “AGT expression and secretion” value is “increased”. The AGT expression entry in the assay with angiotensinogen (AGT) (lung epithelial cells treated with NNK for 120 days) is on record as “increased”.

For `CC(=O)OCOC(=O)CN(CC(=O)OCOC(C)=O)c1ccccc1OCCOc1ccccc1N(CC(=O)OCOC(C)=O)CC(=O)OCOC(C)=O` [BAPTA-AM, 1,2-bis(2-aminophenoxy)ethane-N,N,N′,N′-tetraacetic acid tetrakis(acetoxymethyl ester)], the IGF-1R phosphorylation entry in the assay with IGF-1R [6] is “inhibited”. Moreover, in the assay with IGF2 [7], the “NE-mediated IGF2 secretion” value is reported as “inhibited”. For the same compound, the “NE-mediated IGF-1R activation” value in the assay on IGF-1R [8] is recorded as “inhibited”. Also, the “NNK-increased IGF2 secretion” value in the assay on IGF2 [5] (GFP-IGF2-overexpressing BEAS-2B, with NNK) is on record as “inhibited”.

On to `C[C@]12CCC(=O)C=C1CC[C@@H]1[C@@H]2[C@@H](O)C[C@@]2(C)[C@H]1CC[C@]2(O)C(=O)CO` [cortisol], for which the “transformation of lung epithelial cells (viability, colony formation, foci formation)” value with lung epithelial cells [9] is “not by cortisol”.

Regarding `CNC[C@H](O)c1ccc(O)c(O)c1` [epinephrine], in the assay with lung epithelial cells [9], the “transformation of lung epithelial cells (viability, colony formation, foci formation)” value is given as “induced”.

Turning to `C[C@]1(O)C[C@@H](c2nc(-c3ccc4ccc(-c5ccccc5)nc4c3)c3c(N)nccn32)C1` [linsitinib], in the assay with lung epithelial cells [10], the “NE-induced increase in colony formation of lung epithelial cells” value is “significantly suppressed” and the “NE-induced increase in viability of lung epithelial cells” value was “significantly suppressed”.

On to `COC(=O)C1=C(C)NC(C)=C(C(=O)OC)C1c1ccccc1[N+](=O)[O-]` [nifedipine], for which, in the assay with IGF2 [7], the “NE-mediated IGF2 secretion” value is reported as “inhibited”. In the assay on IGF-1R [8], the “NE-mediated IGF-1R activation” value is recorded as “inhibited”.

`CCCCc1nc(Cl)c(CO)n1Cc1ccc(-c2ccccc2-c2nn[nH]n2)cc1` [losartan]: in the assay on lung epithelial cells [11], the “NNK-induced promotion of cell viability” value was “suppressed”, the “NNK-induced promotion of colony formation” value is “suppressed” and the “NNK-induced promotion of foci formation” value is given as “suppressed”. Moreover, the NNK-induced tumorigenesis result in the assay with A/J mice is “significantly suppressed”. Further, the “NNK-mediated IGF-1R activation” value in the assay with IGF-1R [4] is “inhibited”.

`C[C@H](CCC(=O)O)C[C@H](C)C[C@H](C)C(=O)/C=C(\O)[C@H](C)C[C@H](C)C/C=C/[C@@H](C)[C@@H](O)[C@@H](C)[C@@H](O)C[C@@H]1CC[C@@](C)([C@H]2CC[C@@](C)([C@@H](C)O)O2)O1` [ionomycin]: the IGF-1R phosphorylation result with IGF-1R [6] is reported as “increased”.

Consider `O=C(O)CN(CCOCCOCCN(CC(=O)O)CC(=O)O)CC(=O)O` [EGTA, ethylene glycol tetraacetic acid], for which, in the assay on IGF-1R [6], the IGF-1R phosphorylation entry was “inhibited”. For the same compound, the “NE-mediated IGF2 secretion” value with IGF2 [7] is “inhibited”. Besides, the “NE-mediated IGF-1R activation” value in the assay on IGF-1R [8] is given as “inhibited”. Also, in the assay with IGF2 [5], the “NNK-increased IGF2 secretion” value is reported as “inhibited”.

On to `C[C@H](CS)C(=O)N1CCC[C@H]1C(=O)O` [captopril], for which, in the assay on lung epithelial cells [11], the “NNK-induced promotion of cell viability” value is “suppressed”, the “NNK-induced promotion of colony formation” value was “suppressed” and the “NNK-induced promotion of foci formation” value is given as “suppressed”. In addition, the NNK-induced tumorigenesis result in the assay on A/J mice is “significantly suppressed”. The “NNK-mediated IGF-1R activation” value in the assay with IGF-1R [4] was “inhibited”.

Consider `C/C=C(/C)C(=O)O[C@H]1C(C)=C2[C@H]([C@@H]1OC(=O)CCCCCCC)[C@@](C)(OC(C)=O)C[C@H](OC(=O)CCC)[C@@]1(O)[C@H]2OC(=O)[C@@]1(C)O` [thapsigargin], for which the IGF-1R phosphorylation entry with IGF-1R [6] is “increased”.
